Calls of active or inactive are those of the source. The calls are words filed in the database; no cut-off is given here.

Our source for the Kin, Activity and EC50 values is ChEMBL document CHEMBL3297717, “Synthesis and potent ionophoric activity of a squaramide-linked bis(choloyl) conjugate” (Bioorg Med Chem Lett, 2014).

Assay [1] in a line: Ionophoric activity across egg-yolk L-alpha-phosphatidylcholine-based liposomal membrane assessed as induction of pH discharge in membrane by measuring initial rate constant after 21 mins by Hill plot analysis.
Assay [2] can be described thus: Ionophoric activity across egg-yolk L-alpha-phosphatidylcholine-based liposomal membrane assessed as induction of pH discharge in membrane at 3 mol% after 20 mins by pyramine dye-based fluorescence assay in presence of CsCl.
A short description of assay [3]: Ionophoric activity across egg-yolk L-alpha-phosphatidylcholine-based liposomal membrane assessed as induction of pH discharge in membrane at 3 mol% after 20 mins by pyramine dye-based fluorescence assay in presence of NaNO3.
Assay [4] is described as follows: Ionophoric activity across egg-yolk L-alpha-phosphatidylcholine-based liposomal membrane assessed as induction of pH discharge in membrane at 3 mol% after 20 mins by pyramine dye-based fluorescence assay in presence of NaCl.
A short description of assay [5]: Ionophoric activity across egg-yolk L-alpha-phosphatidylcholine-based liposomal membrane dispersed in HEPES buffer containing Na2SO4 assessed as chloride efflux at 3 mol% after 5 mins.
A short description of assay [6]: Ionophoric activity across egg-yolk L-alpha-phosphatidylcholine-based liposomal membrane assessed as induction of pH discharge in membrane at 3 mol% after 20 mins by pyramine dye-based fluorescence assay in presence of NaBr.
Assay [7] can be described thus: Ionophoric activity across egg-yolk L-alpha-phosphatidylcholine-based liposomal membrane assessed as induction of pH discharge in membrane at 1 to 5 mol% after 21 mins by pyramine dye-based fluorescence assay.
A short description of assay [8]: Ionophoric activity across egg-yolk L-alpha-phosphatidylcholine-based liposomal membrane assessed as induction of pH discharge in membrane at 3 mol% after 20 mins by pyramine dye-based fluorescence assay in presence of RbCl.
A short description of assay [9]: Ionophoric activity across egg-yolk L-alpha-phosphatidylcholine-based liposomal membrane assessed as induction of pH discharge in membrane at 3 mol% after 20 mins by pyramine dye-based fluorescence assay in presence of LiCl.
Assay [10] can be described thus: Ionophoric activity across egg-yolk L-alpha-phosphatidylcholine-based liposomal membrane assessed as induction of pH discharge in membrane at 3 mol% after 20 mins by pyramine dye-based fluorescence assay in presence of KCl.
Assay [11] in a line: Ionophoric activity across egg-yolk L-alpha-phosphatidylcholine-based liposomal membrane assessed as induction of pH discharge in membrane at 3 mol% after 20 mins by pyramine dye-based fluorescence assay in presence of NaI.
Assay [12] in a line: Ionophoric activity across egg-yolk L-alpha-phosphatidylcholine-based liposomal membrane assessed as induction of pH discharge in membrane after 21 mins by pyramine dye-based fluorescence assay.
Assay [13] is described as follows: Ionophoric activity across egg-yolk L-alpha-phosphatidylcholine-based liposomal membrane assessed as chloride efflux after 5 mins.

As to `C[C@H](CCC(=O)NCc1ccc(CNC(=O)CC[C@@H](C)[C@H]2CC[C@H]3[C@@H]4[C@H](O)C[C@@H]5C[C@H](O)CC[C@]5(C)[C@H]4C[C@H](O)[C@]23C)cc1)[C@H]1CC[C@H]2[C@@H]3[C@H](O)C[C@@H]4C[C@H](O)CC[C@]4(C)[C@H]3C[C@H](O)[C@]12C`, the Kin in assay [1] worked out at 2.23 ×10⁻² /min.

Take `C[C@H](CCC(=O)Nc1ccc(Nc2c(Nc3ccc(NC(=O)CC[C@@H](C)[C@H]4CC[C@H]5[C@@H]6[C@H](O)C[C@@H]7C[C@H](O)CC[C@]7(C)[C@H]6C[C@H](O)[C@]45C)cc3)c(=O)c2=O)cc1)[C@H]1CC[C@H]2[C@@H]3[C@H](O)C[C@@H]4C[C@H](O)CC[C@]4(C)[C@H]3C[C@H](O)[C@]12C`: the outcome in [2], in [4], in assay [5], in [7], in assay [8] and in [9] was Active. In assay [10], the result was Active. The result in [3], in assay [6] and in [11] was inactive. For the same molecule, in assay [1], the Kin stood at 0.6 min⁻¹. In addition, the EC50 in assay [12] is 3.82 mol%. Also, the Activity result in assay [13] is “Dose-dependent effect”.

Consider `C[C@H](CCC(=O)N[C@@H](CCCCN)C(=O)NCc1ccc(CNC(=O)[C@H](CCCCN)NC(=O)CC[C@@H](C)[C@H]2CC[C@H]3[C@@H]4[C@H](O)C[C@@H]5C[C@H](O)CC[C@]5(C)[C@H]4C[C@H](O)[C@]23C)cc1)[C@H]1CC[C@H]2[C@@H]3[C@H](O)C[C@@H]4C[C@H](O)CC[C@]4(C)[C@H]3C[C@H](O)[C@]12C`, for which the Kin in [1] was 5.52 ×10⁻² /min.
